One data set has as its system HIV-1HT/92/599. As to the kind of experiment: XTT cytoprotection assay, PBMC infected with HIV-1HT/92/599. In kind it is cell-based. As to conditions: Human immunodeficiency virus 1; Table 2; PBMC infected with HIV-1HT/92/599, XTT; read-out: EC50 (50% cytoprotection), PBMC. The protocol:
(§1) The HIV cytoprotection assay has been previously described in Weislow, O, S. et al., J. Natl. Cancer Inst. 81, 577-86 (1989); Rice, W. G. et al., Antimicrob. Agents Chemother. 41, 419-26 (1997), and Rice, W. G. et al., Proc. Natl. Acad. Sci. USA 90, 9721-4 (1993). CEM-SS cells infected with HIV-1IIIB or monocyte-macrophages infected with HIVBaL were incubated with the compound for 6 days and antiviral activity determined by measurement of cell survival (cytoprotection) using XTT (2,3-bis(2-methoxy-4-nitro-5-sulfophenyl)-5-[(phenylamino)carbonyl]-2H-tetrazolium hydroxide) dye reduction. AZT was used as a positive control for all assays with each assay performed in duplicate with triplicate determinations per condition. Compound toxicity was measured the same way in uninfected CEM-SS cells. Effective antiviral concentrations providing 50% cytoprotection (EC50) and cellular growth inhibitory concentrations causing 50% cytotoxicity (IC50) were calculated.
(§2) Four compounds along with a positive control were assayed for antiviral activity using the XTT cytoprotection assay as described in Example 4. The cells used were CEM-SS cells infected with HIV-1RF, monocyte-macrophages infected with HIVBaL, and peripheral blood mononuclear cells (PBMC) infected with HIV-1HT/92/599. The compounds are compound 8 (comparative), 7a (invention), 10 (invention), 11 (invention), and 12 (invention).
A general note: Tetrazolium assays rely on reduction of a dye to a coloured formazan, in cell work by metabolically active cells.

The test system of another data set is HIVBaL. As to the kind of experiment: XTT cytoprotection assay, monocyte-macrophages infected with HIVBaL. In kind it is cell-based, HIV. Particulars: for EC50: monocyte-macrophages infected with HIVBaL, XTT. The protocol: as §1
Three compounds were assayed for antiviral activity using the XTT cytoprotection assay in CEM-SS cells infected with HIV-1IIIB and in monocyte-macrophages infected with HIVBaL and assayed for virucidal activity. The compounds are compound 7a (invention), 8 (comparative), and 7f (comparative). The structure of compound 8 is as follows:
as §2

In a further data set the test system is CEM-SS cells. Description: Compound toxicity by XTT in uninfected CEM-SS cells. The format is cell-based. As to conditions: Table 2; read-out: TC50, CEM-SS cells. The procedure:
as §1

Test in data set [1]: as above
The format is cell-based. Particulars: human; Table 1; uninfected CEM-SS cells, XTT; read-out: TC50, CEM-SS cells. The procedure:
as §1

Another data set has as its system HIV-1RF. Description: XTT cytoprotection assay, CEM-SS cells infected with HIV-1RF. In kind it is cell-based. Particulars: Human immunodeficiency virus 1, Table 2, read-out: EC50 (50% cytoprotection), CEM-SS cells. The protocol:
as §1, §2

The next data set relates to monocyte-macrophages. As to the kind of experiment: Compound toxicity in monocyte-macrophages. The format is cell-based. Particulars: Table 2; read-out: TC50, Monocyte/Macrophage.
The nature of data set [2]: Compound toxicity in monocyte-macrophages. The format is cell-based. As to conditions: human, monocyte-macrophages; Table 1; read-out: TC50, Monocytes-macrophages.
Data set [3] has as its system HIV-1IIIB. As to the kind of experiment: XTT cytoprotection assay, CEM-SS cells infected with HIV-1IIIB. The format is cell-based. Particulars: Human immunodeficiency virus 1, 144 h, Table 1, 6 days, read-out: EC50 (50% cytoprotection), CEM-SS cells. The procedure: as §1
Three compounds were assayed for antiviral activity using the XTT cytoprotection assay in CEM-SS cells infected with HIV-1IIIB and in monocyte-macrophages infected with HIVBaL and assayed for virucidal activity. The compounds are compound 7a (invention), 8 (comparative), and 7f (comparative).

Data set [4] is described as follows: Compound toxicity in PBMC. The format is cell-based. As to conditions: human, peripheral blood mononuclear cells (PBMC); Table 2; read-out: TC50, PBMC. The procedure:
as §1, §2

In data set [5] the test system is HIV-1IIIB. As to the kind of experiment: Cell-free virus inactivation (virucidal) assay. Particulars: for EC50: Human immunodeficiency virus 1, Table 1, HIV-1IIIB incubated with compound 2 h at 37° C., then added to CEM-SS cells. The format is cell-based. The procedure:
Cell-free virus inactivation assays were performed as previously described in Song, Y. et al., Bioorg. Med. Chem. 10, 1263-73 (2002). Briefly, HIV-1IIIB was incubated with three concentrations of each compound for 2 h at 37° C. and then pelleted at 4° C. for 90 minutes at 18,000×g. Following several washes with DPBS to remove unbound compound, the virus was resuspended in cell culture media and added to CEM-SS cells at a titer to yield 85-90% cell killing at day 6 post-infection.

Data set [6] is described as follows: Stability in vaginal fluid simulant (RP-HPLC). In kind it is physicochemical. Particulars: 400 μM; 25° C., 30 days; FIG. 6; compared with compound 8. The procedure:
The final concentration of the compounds was 400 μM. The samples were incubated at 25° C. over the course of 30 days and the amount of intact compound was measured over time using RP-HPLC. […] The results are illustrated in FIG. 6.

A short description of data set [7]: pH stability in buffers (RP-HPLC). Particulars: 250 μM; pH 5.0, 7.0, 9.0 buffers; 25° C., 30 days; FIG. 5. In kind it is physicochemical. The protocol:
This example illustrates the pH stability of compound 7a. Compound 7a was dissolved in DMSO and diluted into the 100 mM sodium acetate buffer at pH 5.0 (shown in FIG. 5 as diamonds), 100 mM sodium phosphate buffer at pH 7.0 (shown in FIG. 5 as circles), and 100 mM Tris-HCl buffer at pH 9.0 (shown in FIG. 5 as squares) at a final compound concentration of 250 μM. The samples were incubated at 25° C. over the course of 30 days and the amount of intact compound was measured over time using RP-HPLC. The results are illustrated in FIG. 5.

Data set [8] in a line: Human plasma stability (RP-HPLC). The format is in vitro ADME. As to conditions: 20 μM in 50% human plasma in PBS, 37° C., 1 hour; FIG. 7. The protocol:
Compound 8 (comparative), compound 7a (invention), compound 10 (invention), compound 11 (invention), and compound 12 (invention) were dissolved in DMSO and diluted into 50% human plasma in PBS buffer at a final concentration of 20 μM. The samples were incubated at 37° C. for 1 hour and the amount of intact compound measured using RP-HPLC. The results are illustrated in FIG. 7.

The mark [9] stands for this setting: Human immunodeficiency virus 1, 144 h, Table 1, 6 days, read-out: EC50 (50% cytoprotection), Monocytes-macrophages.
The mark [10] stands for this setting: Human immunodeficiency virus 1, Table 2, read-out: EC50 (50% cytoprotection), Monocyte/Macrophage.

Like-named read-outs stand apart in the source and are kept apart here.

Consider three molecules from patent US20130096092A1, “THIOETHER PRODRUG COMPOSITIONS AS ANTI-HIV AND ANTI-RETROVIRAL AGENTS” (Health and Human Services, priority 2010, published 2013).

For the molecule `CC(=O)Sc1ccccc1C(=O)NCCC(N)=O` [Compound 8], the EC50 amounted to 5.74 µM with HIV-1HT/92/599; 2 µM in the data set on HIVBaL (setting [9]); 1.97 µM in the data set on HIVBaL (setting [10]); 0.6 µM with HIV-1RF; 0.6 µM with HIV-1IIIB [3]; 0.9 µM in the data set on HIV-1IIIB [5]. Further, the CC50 in the data set with CEM-SS cells and with monocyte-macrophages was more than 100 µM throughout. In addition, the CC50 at 6 days in data set [1], in data set [2] and in data set [4] was more than 100 µM each time.

For `NC(=O)CCNC(=O)c1ccccc1SCc1ccccc1` [Compound 7f], the figures for the EC50 in the data set with HIVBaL (setting [9]), with HIV-1IIIB [3] and in the data set on HIV-1IIIB [5] were more than 100 µM, 34.9 µM and more than 100 µM, respectively. The “activity in cytoprotection assay against infected monocytes-macrophages” value in the data set on HIVBaL (as compared to compound 7a) is “inactive”. Further, the CC50 at 6 days in data set [1] and in data set [2] was more than 100 µM each time. Also, in the data set on HIV-1IIIB [5] (virucidal assay, as compared to compound 7a), the “activity in the antiviral assay against HIV-1IIIB” value is “inactive”.

Take `CC(C)C(=O)Oc1ccc(CSc2ccccc2C(=O)NCCC(N)=O)cc1` [Compound 7a, N-{2-[4-(isopropylcarbonyloxy)benzylthio]benzoyl}-β-alaninamide]: the EC50 in the data set on HIV-1HT/92/599 is 4.06 µM; in the data set on HIVBaL (setting [9]) it was 0.6 µM; with HIVBaL (setting [10]) it was 0.62 µM; in the data set with HIV-1RF, 0.2 µM; in the data set with HIV-1IIIB [3], 0.2 µM; in the data set with HIV-1IIIB [5] it was 9.8 µM. Moreover, the CC50 in the data set with CEM-SS cells and in the data set with monocyte-macrophages was more than 100 µM in each case. Moreover, the CC50 at 6 days in data set [1], in data set [2] and in data set [4] was more than 100 µM in each case. Besides, the “stability in vaginal fluid simulant, intact compound over time” value in data set [6] is reported as “significantly more stable”. The “pH stability, intact compound over time” value in [7] was “most stable at acidic pH”. The “stability in human plasma, intact compound” value in [8] is reported as “did not exhibit stability”.
